Measured values from patent US20100113608A1, “Tryptase Enzyme Inhibiting Aminothiophenols” (priority 2008, published 2010).

Legend:
tryptase enzyme = target: T1, tryptase enzyme (Homo sapiens, UniProt P20231); test: Tryptase enzyme inhibition (cleavage of tosyl-gly-pro-lys-pNA, absorbance at 405 nm); format: biochemical; conditions: 2 h at 37° C.; relative to controls
T1 construct: purchased Millipore Inc., Westbury, Mass
Protocol: A. Tryptase Enzyme Inhibition
Tryptase activity was determined by monitoring the production of chromophore p-nitroaniline (pNA) generated by the cleavage of tosyl-gly-pro-lys-pNA by the tryptase enzyme according to the manufacturer's protocol (Millipore Inc., Westbury, Mass.). In a 96-well format, 10 μL of tryptase was added to 10 μL of sample, followed by 20 μL of tosyl-gly-pro-lys-pNA and 160 μL of 1× reaction buffer and incubated for 2 h at 37° C. After the incubation, absorbance at 405 nm was measured in each well using a Tecan M200 microplate reader.

[1] = Pharmacokinetic analysis: serum and urine by DART TOF-MS after a 100 mg lozenge; format: in vivo, human; conditions: humans
Protocol: Five healthy consenting female adults ranging in age from 23 to 57 were took diets free of flavonoids and any NSAIDs. A certified individual collected blood samples at several time intervals between 0 and 480 min after compounds of the present invention were ingested in a mixture. Immediately after the time zero blood samples were collected, a single 100 mg dose of the composition was administered as a lozenge. Blood samples were handled with approved protocols and precautions, centrifuged to remove cells and the serum fraction was collected and frozen. Blood was not treated with heparin to avoid any analytical interference. Urine samples were collected from the same five subjects on a time course (0 to 8 h). The cells were removed from the blood samples by centrifugation and the serum was collected. Serum samples were prepared for DART TOF-MS analysis by extraction with an equal volume of neat ethanol (USP) to minimize background of proteins, peptides, and polysaccharides present in serum. The ethanol extract was centrifuged for 10 min at 4° C., the supernatant was removed, concentrated to 200 μL volume, and 50 μL of an internal standard was added. Urine samples were not treated and used directly for DART TOF-MS. DART TOF-MS analyses were conducted as described above.

[2] = in a mixture, slow-dissolve lozenge

T1 sequence (P20231 31-275): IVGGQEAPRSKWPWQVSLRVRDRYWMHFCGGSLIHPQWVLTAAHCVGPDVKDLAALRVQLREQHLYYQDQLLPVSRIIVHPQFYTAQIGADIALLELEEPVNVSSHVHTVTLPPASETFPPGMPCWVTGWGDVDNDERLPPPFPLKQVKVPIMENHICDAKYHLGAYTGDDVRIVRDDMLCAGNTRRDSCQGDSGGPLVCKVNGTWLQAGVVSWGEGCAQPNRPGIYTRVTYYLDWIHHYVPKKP

- IC50 (tryptase enzyme): 493 µM
- Time to appearance in urine [1, 2]: ≤ 1 h
- Time to first appearance in bloodstream (serum) [1, 2]: ≤ 10 min
- Time up to which present in the blood post-ingestion [1, 2]: up to 360 min
- Time up to which present in urine post-ingestion [1, 2]: up to 8 h
- Detection in blood at 480 min after ingestion ([1]; lozenge, 480 min): not detected
SMILES: CCCCCN(c1ccc(N)cc1)c1ccc(S)cc1.Cl [III, 4-[(4-Amino-phenyl)-pentyl-amino]benzenethiol hydrochloride salt]
